Molecular target: T1, KRAS G12C 1-169, his-tagged protein, GDP-loaded (Homo sapiens, UniProt P01116, G12C)
T1 construct: KRAS G12C 1-169, his-tagged protein, GDP-loaded
Assay: Biochemical assay: covalent binding (modification %) to KRAS G12C by mass spectrometry
Conditions: 2 hour incubation period
Experimental: Test compounds were prepared as 10 mM stock solutions in DMSO (Fisher cat# BP-231-100). KRAS G12C 1-169, his-tagged protein, GDP-loaded was diluted to 2 μM or 0.5 μM in buffer (20 mM Hepes, 150 mM NaCl, 1 mM MgCl2). Compounds were tested for activity as follows:
Compounds were diluted to 50× final test concentration in DMSO in 96-well storage plates. Compound stock solutions were vortexed before use and observed carefully for any sign of precipitation. Dilutions were as follow: • For 100 μM final compound concentration, compounds were diluted to 5000 μM (5 μL 10 mM compound stock+5 μL DMSO and mixed well by pipetting. • For 30 μM final compound concentration, compounds were diluted to 1500 μM (3 μL 10 mM compound stock+17 μL DMSO) and mixed well by pipetting. • For 10 μM final compound concentration, compounds were diluted to 500 μM (2 μL 10 mM compound stock+38 μL DMSO) and mixed well by pipetting. 49 μL of the stock protein solution was added to each well of a 96-well PCR plate (Fisher cat#1423027). 1 μl of the diluted 50× compounds were added to appropriate wells in the PCR plate using 12-channel pipettor. Reactions were mixed carefully and thoroughly by pipetting up/down with a 200 μL multi-channel pipettor. The plate was sealed well with aluminum plate seal, and stored in drawer at room temperature for 10 minutes, 30 minutes, 2 hours or 24 hours. 5 μL of 2% formic acid (Fisher cat# A117) in de-ionized H2O was then added to each well followed by mixing with a pipette. The plate was then resealed with aluminum seal and stored on dry ice until analyzed as described below.
The above described assays were analyzed by mass spectrometry according to one of the following two procedures:
The MS instrument is set to positive polarity, 2 GHz resolution, and low mass (1700) mode and allowed to equilibrate for 30 minutes. The instrument is then calibrated, switched to acquisition mode and the appropriate method loaded.
After another 30 minute equilibration time, a blank batch (i.e., buffer) is run to ensure equipment is operating properly. The samples are thawed at 37° C. for 10 minutes, briefly centrifuged, and transfer to the bench top. Wells A1 and H12 are spiked with 1 μL 500 μM internal standard peptide, and the plates centrifuged at 2000×g for 5 minutes. The method is then run and masses of each individual well recorded.
The masses (for which integration data is desired) for each well are pasted into the platemap and exported from the analysis. Masses for the internal standards are exported as well. The data at 50 ppm is extracted for the +19 charge state, and identity of well A1 is assigned using the internal standard spike and integrated. Peak data is exported as a TOF list and the above steps are repeated individually, for the +20, 21, 22, 23, 24, and 25 charge states.
The masses and peak intensities of KRAS G12C protein species were measured using a Dionex RSLCnano system (Thermo Scientific) connected to a Q Exactive Plus mass spectrometer (Thermo Scientific).
[…] of sample was each loaded onto a Aeris™ 3.6 μm WIDEPORE C4 200 Å, LC Column 50×2.1 mm column maintained at 40° C. at a flow rate of 600 μL/min with 20% Solvent A (0.1% formic acid in H2O) and 80% Solvent B (0.1% formic acid in acetonitrile). The liquid chromatography conditions were 20% solvent B for 1 minute, 20% to 60% solvent B for 1.5 minutes, 60% to 90% solvent for 0.5 minute, 90% solvent B for 0.2 minute, 90% to 20% solvent B for 0.2 minute, and then equilibrated for 1.6 minute before the following sample injection. The flow rate was maintained at 600 μL/min throughout the sample analysis.
The mass spectrometer was operated in profile mode at a resolution of 17500, 5 microscans, using 50 msec max injection time and an AGC target of 1×10^6, and a full mass range from 800-1850 m/z was recorded. The HCD trapping gas was optimized for maximum sensitivity for intact proteins. […]

[1] = 8 μM compound (compounds 21-92)
[2] = 10 μM compound (compounds 1-20)

Structure (SMILES) | Binding % [1] | Binding % [2]
C=CC(=O)N1CC(N2Cc3ccc(-c4ccc(C#N)cc4)cc3C2=O)C1 [Compound 80, 4-(2-(1-acryloylazetidin-3-yl)-3-oxoisoindolin-5-yl)benzonitrile] | + (+ indicates binding activity up to 10%) | –
C=CC(=O)N1CC(N2Cc3ccc(C(=O)N4CCC(N(C)C)C4)cc3C2=O)C1 (centres unmarked) [Compound 76, 2-(1-acryloylazetidin-3-yl)-6-(3-(dimethylamino)pyrrolidine-1-carbonyl)isoindolin-1-one] | + (+ indicates binding activity up to 10%) | –
C=CC(=O)N1CC(N2Cc3ccc(Oc4ccccc4)cc3C2=O)C1 [Compound 45, 2-(1-acryloylazetidin-3-yl)-6-phenoxyisoindolin-1-one] | + (+ indicates binding activity up to 10%) | –
C=CC(=O)N1CC(N2Cc3c(O)cc(-c4c(C)ccc5[nH]ncc45)cc3C2=O)C1 [Compound 44, 2-(1-acryloylazetidin-3-yl)-4-hydroxy-6-(5-methyl-1H-indazol-4-yl)isoindolin-1-one] | ++ (++ indicates binding activity from 10 to 50%) | –
C=CC(=O)N1CC(N2CCc3ccc(-c4cc(O)cc5ccccc45)cc3C2=O)C1 [Compound 35, 2-(1-acryloylazetidin-3-yl)-7-(3-hydroxynaphthalen-1-yl)-3,4-dihydroisoquinolin-1(2H)-one] | +++ (+++ indicates binding activity greater than 50%) | –
C=CC(=O)N1CC(N2Cc3cc(C)c(-c4cc(O)ccc4Cl)cc3C2=O)C1 [Compound 29, 2-(1-acryloylazetidin-3-yl)-6-(2-chloro-5-hydroxyphenyl)-5-methylisoindolin-1-one] | ++ (++ indicates binding activity from 10 to 50%) | –
C=CC(=O)N1CC(N2Cc3ccc(-c4c(C)ccc5cn[nH]c45)cc3CC2=O)C1 [Compound 39, 2-(1-acryloylazetidin-3-yl)-6-(6-methyl-1H-indazol-7-yl)-1,2-dihydroisoquinolin-3(4H)-one] | ++ (++ indicates binding activity from 10 to 50%) | –
C=CC(=O)N1CC(N2C(=O)c3ccc(-c4c(C)ccc5[nH]ncc45)cc3C2=O)C1 [Compound 32, 2-(1-acryloylazetidin-3-yl)-5-(5-methyl-1H-indazol-4-yl)isoindoline-1,3-dione] | + (+ indicates binding activity up to 10%) | –
C=CC(=O)N1CC(N2Cc3ccc(-c4cc(O)cc5ccccc45)cc3CC2=O)C1 [Compound 3, 2-(1-acryloylazetidin-3-yl)-6-(3-hydroxynaphthalen-1-yl)-1,4-dihydroisoquinolin-3(2H)-one] | – | +++ (+++ indicates binding activity greater than 50%)
C=CC(=O)N1CC(N2Cc3ccc(N4CCC(O)C4)cc3C2=O)C1 (centres unmarked) [Compound 59, 2-(1-acryloylazetidin-3-yl)-6-(3-hydroxypyrrolidin-1-yl)isoindolin-1-one] | + (+ indicates binding activity up to 10%) | –
C=CC(=O)N1CC(N2Cc3c(OC)cc(-c4c(C)ccc5[nH]ncc45)cc3C2=O)C1 [Compound 92, 2-(1-acryloylazetidin-3-yl)-4-methoxy-6-(5-methyl-1H-indazol-4-yl)isoindolin-1-one] | ++ (++ indicates binding activity from 10 to 50%) | –
C=CC(=O)N1CC(N2Cc3ccc(-c4ccccc4C(N)=O)cc3C2=O)C1 [Compound 47, 2-(2-(1-acryloylazetidin-3-yl)-3-oxoisoindolin-5-yl)benzamide] | + (+ indicates binding activity up to 10%) | –
C=CC(=O)N1CC(N2C(=O)c3ccc(-c4cc(O)cc5ccccc45)cc3C2=O)C1 [Compound 25, 2-(1-acryloylazetidin-3-yl)-5-(3-hydroxynaphthalen-1-yl)isoindoline-1,3-dione] | ++ (++ indicates binding activity from 10 to 50%) | –
C=CC(=O)NCCN1Cc2ccc(-c3c(C)ccc4[nH]ncc34)cc2C1=O [Compound 22, N-(2-(6-(5-methyl-1H-indazol-4-yl)-1-oxoisoindolin-2-yl)ethyl)acrylamide] | + (+ indicates binding activity up to 10%) | –
C=CC(=O)N1CC(N2Cc3c(C#N)cc(-c4c(C)ccc5[nH]ncc45)cc3C2=O)C1 [Compound 89, 2-(1-acryloylazetidin-3-yl)-6-(5-methyl-1H-indazol-4-yl)-1-oxoisoindoline-4-carbonitrile] | + (+ indicates binding activity up to 10%) | –
C=CC(=O)N1CC(N2Cc3ccc(-c4cc(O)cc5ccccc45)cc3C2)C1 [Compound 51, 1-(3-(5-(3-hydroxynaphthalen-1-yl)isoindolin-2-yl)azetidin-1-yl)prop-2-en-1-one] | + (+ indicates binding activity up to 10%) | –
C=CC(=O)N1CC(N2Cc3c(C(N)=O)cc(-c4cc(O)cc5ccccc45)cc3C2=O)C1 [Compound 23, 2-(1-acryloylazetidin-3-yl)-6-(3-hydroxynaphthalen-1-yl)-1-oxoisoindoline-4-carboxamide] | +++ (+++ indicates binding activity greater than 50%) | –
C=CC(=O)N1CC(N2Cc3c(Cl)cc(-c4cc(O)ccc4Cl)cc3C2=O)C1 [Compound 13, 2-(1-acryloylazetidin-3-yl)-4-chloro-6-(2-chloro-5-hydroxyphenyl)isoindolin-1-one] | – | ++ (++ indicates binding activity from 10 to 50%)
C=CC(=O)N1CC(N2CCc3ccc(-c4c(C)ccc5[nH]ncc45)cc3CC2)C1 [Compound 37, 1-(3-(7-(5-methyl-1H-indazol-4-yl)-4,5-dihydro-1H-benzo[d]azepin-3(2H)-yl)azetidin-1-yl)prop-2-en-1-one] | + (+ indicates binding activity up to 10%) | –
C=CC(=O)N1CCC(N2Cc3ccc(-c4cc(O)cc5ccccc45)cc3C2=O)C1 (centres unmarked) [Compound 9, 2-(1-acryloylpyrrolidin-3-yl)-6-(3-hydroxynaphthalen-1-yl)isoindolin-1-one] | – | ++ (++ indicates binding activity from 10 to 50%)
C=CC(=O)N1CC(N2CCc3ccc(-c4c(C)ccc5[nH]ncc45)cc3C2=O)C1 [Compound 36, 2-(1-acryloylazetidin-3-yl)-7-(5-methyl-1H-indazol-4-yl)-3,4-dihydroisoquinolin-1(2H)-one] | + (+ indicates binding activity up to 10%) | –
C=CC(=O)N1CC(N2Cc3ccc(-c4ccccc4C#N)cc3C2=O)C1 [Compound 61, 2-(2-(1-acryloylazetidin-3-yl)-3-oxoisoindolin-5-yl)benzonitrile] | + (+ indicates binding activity up to 10%) | –
C=CC(=O)N1CC(N2Cc3ccc(-c4cccc5cn[nH]c45)cc3C2=O)C1 [Compound 53, 2-(1-acryloylazetidin-3-yl)-6-(1H-indazol-7-yl)isoindolin-1-one] | + (+ indicates binding activity up to 10%) | –
C=CC(=O)N1CC(N2Cc3ccc(-c4c(C)ccc5[nH]ncc45)c(F)c3C2=O)C1 [Compound 69, 2-(1-acryloylazetidin-3-yl)-7-fluoro-6-(5-methyl-1H-indazol-4-yl)isoindolin-1-one] | ++ (++ indicates binding activity from 10 to 50%) | –
C=CC(=O)N1CC(N2Cc3c(C(N)=O)cc(-c4c(O)cccc4F)cc3C2=O)C1 [Compound 83, 2-(1-acryloylazetidin-3-yl)-6-(2-fluoro-6-hydroxyphenyl)-1-oxoisoindoline-4-carboxamide] | + (+ indicates binding activity up to 10%) | –
C=CC(=O)N1CC(N2Cc3ccc(-c4c(C)ccc5[nH]ncc45)nc3C2=O)C1 [Compound 87, 6-(1-acryloylazetidin-3-yl)-2-(5-methyl-1H-indazol-4-yl)-5,6-dihydro-7H-pyrrolo[3,4-b]pyridin-7-one] | + (+ indicates binding activity up to 10%) | –
